“And” between values parts separate entries of the source, which are not always exact repeats. Equal values may be shown once.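 How tested: cells in 96-well plates exposed to compound for 48 hours at five concentrations. GI50 marks 50% less growth. Definition used: TGI = concentration required for complete inhibition of growth.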
Experiments:
Test in all cases: NCI-60 cell line screen, 48 h
[1] = system: UACC-257 melanoma
[2] = system: OVCAR-4 ovarian
[3] = system: HL-60(TB) leukemia
[4] = system: KM12 colon
[5] = system: ACHN renal
[6] = system: HS 578T breast
[7] = system: SK-MEL-28 melanoma
[8] = system: EKVX NSCLC
[9] = system: UO-31 renal
[10] = system: SK-MEL-2 melanoma

| SMILES | GI50 [1] | TGI [1] | GI50 [2] | TGI [2] | GI50 [3] | TGI [3] | GI50 [4] | TGI [4] | GI50 [5] | TGI [5] | GI50 [6] [µM] | TGI [6] [µM] | GI50 [7] | TGI [7] | GI50 [8] | TGI [8] | GI50 [9] | TGI [9] | GI50 [10] [µM] | TGI [10] |
| --- | --- | --- | --- | --- | --- | --- | --- | --- | --- | --- | --- | --- | --- | --- | --- | --- | --- | --- | --- | --- |
| Cc1cn(Cc2ccccc2CCl)c(=O)n(Cc2ccccc2CCl)c1=O | 2.25 µM | 4.86 µM | 1.98 µM | 4.83 µM | 1.37 µM | 3.24 µM | 1.99 µM | 4.48 µM | 1.66 µM | 3.06 µM | 2.65 | 15.1 | 2.21 µM | 5.49 µM | 2.26 µM | 5.13 µM | 1.65 µM | 3.17 µM | 1.32 | 4.29 µM |
| c1ccc(/C(=N\Nc2ccc3ccccc3n2)c2ccccn2)cc1 | 0.33 µM | 3.48 µM | 0.418 µM | > 100 µM | 0.235 µM | 0.775 µM | 0.989 µM | 13.5 µM | 0.49 µM | 8.78 µM | 4.42 | 41.6 | 2.66 µM | 39 µM | 0.281 µM | 8.39 µM | 0.361 µM | 4.89 µM | 0.604 | 7.4 µM |
| c1ccc2c(CN3CCC(C4CCN(Cc5cccc6ccccc56)CC4)CC3)cccc2c1 | – | 4.25 µM and 11.9 µM | 13.6 µM and 35.9 µM | 38.2 µM and > 100 µM | – | 4.5 µM and 26.1 µM | 10.7 µM and 33.5 µM | 33.7 µM and > 100 µM | – | > 100 µM | – | > 100 | 1.48 µM and 3.1 µM | 2.85 µM and 8.19 µM | 35.1 µM and > 91.4 µM | > 100 µM | 3.84 µM and 29.4 µM | 16.2 µM and > 100 µM | – | 15.2 µM and 37.1 µM |
| COc1cc2c3cc1Oc1c(OC)c(OC)cc4c1C(Cc1ccc(cc1)Oc1cc(ccc1O)CC3N(C)CC2)N(C)CC4 (stereo not drawn) | 13.3 µM and 1.96 µM | 26.7 µM and 4.29 µM | – | 29.6 µM and 31.3 µM | 5.61 µM and 1.88 µM | 30.5 µM and 7.29 µM | – | 24.8 µM and 26.2 µM | 14.5 µM and 4.72 µM | 46.1 µM and 15.8 µM | – | 31.4 | 12.9 µM and 5.81 µM | 25.9 µM and 26 µM | – | > 100 µM and 33.3 µM | – | 21.5 µM and 20.6 µM | – | 27 µM and 24.8 µM |
| NCCSC(C[N+](=O)[O-])c1ccccc1Cl (stereo not drawn) | 1.91 µM | 4.31 µM | 12.1 µM | 30.1 µM | 3.38 µM | > 23.3 µM | 1.82 µM | 3.42 µM | 9.85 µM | 22.1 µM | 2.46 | 7.63 | 2.08 µM | 4.6 µM | 16.9 µM | 41.6 µM | 3.46 µM | 10.1 µM | 21.9 | 51.5 µM |
| COc1ccc(CN=C(N)N=C(N)N)cc1OC | 448 µM | > 1000 µM | 215 µM | > 1000 µM | 706 µM | > 1000 µM | > 1000 µM | > 1000 µM | > 1000 µM | > 1000 µM | > 1000 | > 1000 | 960 µM | > 1000 µM | 40.1 µM | > 1000 µM | > 1000 µM | > 1000 µM | 859 | > 1000 µM |
| COc1ccc(OC)c(/C=N/N=C2\C(=O)Nc3c(Cl)cc(Cl)cc32)c1 | – | > 100 µM | – | > 100 µM | – | > 100 µM | – | > 100 µM | – | > 100 µM | – | 83.5 | – | > 100 µM | – | > 100 µM | – | > 100 µM | – | 68.8 µM |
| CCc1nc(N)nc(N)c1C#CC(C)c1cc(-c2ccnc(C)c2)c2oc(C)nc2c1 (stereo not drawn) | – | 13.2 µM | 4.54 µM | 26.4 µM | < 0.01 µM | 2.22 µM | 0.0201 µM | 10.9 µM | < 0.01 µM | 11 µM | 1.5 | 13.9 | 0.106 µM | 14.3 µM | 0.451 µM | 15 µM | 0.0181 µM | 11.5 µM | 1.9 | 10.6 µM |
| COc1cc(-c2oc3c(OC)c(O)cc(O)c3c(=O)c2OC)ccc1O | – | > 94.2 µM | – | 87.7 µM | – | > 33.3 µM | – | > 100 µM | – | > 71.5 µM | – | 6.83 | – | > 100 µM | – | 72.5 µM | – | 14.8 µM | – | 15.3 µM |
| O=C1OC(OC/C(Br)=C(/Br)COC2OC(=O)C(Cl)=C2Cl)C(Cl)=C1Cl (stereo not drawn) | – | 25.5 µM | – | 20.1 µM | – | 4.33 µM | – | 21.8 µM | – | 24.8 µM | – | 64.7 | – | 23.3 µM | – | 32.2 µM | – | 15.6 µM | – | 44.8 µM |
| COC(=O)Nc1nc2ccc(S(=O)(=O)c3ccc(NC(=O)Nc4cc(C(F)(F)F)ccc4F)cc3)cc2[nH]1 | > 25 µM | > 25 µM | > 25 µM | > 25 µM | > 25 µM | > 25 µM | > 21.1 µM | > 25 µM | > 25 µM | > 25 µM | > 25 | > 25 | > 25 µM | > 25 µM | > 25 µM | > 25 µM | > 25 µM | > 25 µM | > 25 | > 25 µM |
| COC1OC(C(C)O)C2OC(C)(C)OC12 (stereo not drawn) | – | > 100 µM | – | > 100 µM | – | > 100 µM | – | > 100 µM | – | > 100 µM | – | > 100 | – | > 100 µM | – | > 100 µM | – | > 100 µM | – | > 100 µM |
| Cc1ccc([N+](=O)[O-])c2c(NCCC[N+](C)(C)[O-])ccnc12 | – | 69.8 µM | – | 59.2 µM | – | > 100 µM | – | > 100 µM | – | > 100 µM | – | > 100 | – | > 100 µM | – | > 100 µM | – | > 100 µM | – | > 100 µM |
| CCCC(CCC)C(=O)OCC1(CO)C/C(=C\c2ccc(C(F)(F)F)cc2)C(=O)O1 (stereo not drawn) | 18.1 µM | 33.4 µM | 17.9 µM | 34.4 µM | 0.308 µM | 8.13 µM | 13.7 µM | 28.6 µM | 10.5 µM | 22.6 µM | 12.1 | 30 | 15.5 µM | 29.2 µM | 11 µM | 27.2 µM | 12.2 µM | 26.5 µM | 18.6 | 36 µM |
| COc1ccc2c(c1)C=C1CSCC3=Cc4cc(OC)ccc4OC13O2 | > 100 µM | > 100 µM | 1.54 µM | > 100 µM | 0.27 µM | 0.801 µM | 0.513 µM | > 100 µM | 0.863 µM | > 100 µM | 0.313 | > 100 | > 28.2 µM | > 100 µM | 3.14 µM | > 100 µM | 0.642 µM | > 100 µM | 0.625 | > 100 µM |
| CCC(=O)c1c(C(F)(F)F)n([O-])c2ccccc2[n+]1=O | 10.8 µM | 35.3 µM | 5.65 µM | 31.2 µM | 3.03 µM | > 100 µM | 1.86 µM | 5.86 µM | 1.09 µM | 3.13 µM | 3.17 | 30.5 | 8.84 µM | 44.6 µM | 2 µM | 7.32 µM | 0.829 µM | > 20.2 µM | 14.9 | > 100 µM |
| Clc1ccc(/C=C/c2nc(Cl)c(-c3ccc(Cl)cc3)c(Cl)n2)cc1 | – | > 100 µM | – | > 100 µM | – | > 100 µM | – | > 100 µM | – | > 100 µM | – | > 100 | – | > 100 µM | – | > 100 µM | – | 43.2 µM | – | > 100 µM |
